Data published in the supplement of paper PMC10307832.

Experiments:
Assay in all cases: relative viability (nuclei count vs DMSO), 5 days (fraction); higher = more cells survive
[1] = compound: C1=CC2=C(C=C(C(=C2N=C1)O)N=NC3=CC4=C(C=C3)C=C(C=C4)S(=O)(=O)O)S(=O)(=O)O + CS(=O)(=O)CCNCc1ccc(-c2ccc3ncnc(Nc4ccc(OCc5cccc(F)c5)c(Cl)c4)c3c2)o1 [Lapatinib] (partner 2 µM)
Outline: (§1)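 Relative viability equals treated-well nuclei counts divided by vehicle-well nuclei counts. Counts came from 4× images of lung cancer cell lines grown in 1536-well plates for 5 days after pin-tool dosing on the day after seeding. Dosing used one drug alone or a fixed anchor-drug dose plus five library-drug doses (not always all listed) in √10 steps, and values are medians of duplicate plates.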

[2] = compound: C1=CC2=C(C=C(C(=C2N=C1)O)N=NC3=CC4=C(C=C3)C=C(C=C4)S(=O)(=O)O)S(=O)(=O)O + COc1cccc2cc(-c3nc([C@H]4CC[C@H](C(=O)O)CC4)n4ncnc(N)c34)[nH]c12 [OSI-027] (partner 0.5 µM)
Outline: as §1

[3] = compound: C1=CC2=C(C=C(C(=C2N=C1)O)N=NC3=CC4=C(C=C3)C=C(C=C4)S(=O)(=O)O)S(=O)(=O)O + Nc1nc2[nH]cc(CCc3ccc(C(=O)N[C@@H](CCC(=O)O)C(=O)O)cc3)c2c(=O)[nH]1 [Pemetrexed] (partner 0.2 µM)
Outline: as §1

[4] = compound: C1=CC2=C(C=C(C(=C2N=C1)O)N=NC3=CC4=C(C=C3)C=C(C=C4)S(=O)(=O)O)S(=O)(=O)O + O=C(CCCCCCC(=O)Nc1ccccc1)NO [Vorinostat] (partner 1 µM)
Outline: as §1

Cell Line: UMC-11
- relative viability ([1]; first compound 0.08 µM): 1.07
- relative viability ([1]; first compound 0.253 µM): 0.969
- relative viability ([1]; first compound 0.8 µM): 0.889
- relative viability ([1]; first compound 2.53 µM): 1.02
- relative viability ([1]; first compound 8 µM): 0.716
- relative viability ([2]; first compound 0.08 µM): 0.492
- relative viability ([2]; first compound 0.253 µM): 0.435
- relative viability ([2]; first compound 0.8 µM): 0.458
- relative viability ([2]; first compound 2.53 µM): 0.47
- relative viability ([2]; first compound 8 µM): 0.485
- relative viability ([3]; first compound 0.08 µM): 0.754
- relative viability ([3]; first compound 0.253 µM): 0.853
- relative viability ([3]; first compound 0.8 µM): 0.783
- relative viability ([3]; first compound 2.53 µM): 0.717
- relative viability ([3]; first compound 8 µM): 0.768
- relative viability ([4]; first compound 0.08 µM): 0.462
- relative viability ([4]; first compound 0.253 µM): 0.367
- relative viability ([4]; first compound 0.8 µM): 0.475
- relative viability ([4]; first compound 2.53 µM): 0.403
- relative viability ([4]; first compound 8 µM): 0.392
